For one series, the system named is PAE cells. Briefly: Immunofluorescence microscopy of lamellipodia formation in myc-P-Rex1 transfected PAE cells. In kind it is cell-based, pig. The method, then:
Pig aortic endothelial (PAE) cells were transiently transfected with pCMV3-myc-P-Rex1 or pCMV3-myc-DAPP1 by electroporation, grown on coverslips for 10 h and then serum starved for 8 h. They were then treated or not with 100 nM wortmannin for 10 min followed by stimulation with varying doses of PDGF for 5 min. Cells were fixed and prepared for immunofluorescence microscopy by staining of P-Rex1 and DAPP1 with anti-myc epitope-tag primary and FITC-goat anti-mouse secondary antibodies and filamentuous actin with TRITC-phalloidin as previously described (Welch et al. 1998).

The nature of series [1]: Protein phosphatase assay with para-nitrophenolphosphate. In kind it is biochemical. The note with it: P-Rex1 up to 192 nM. An excerpt: We also used para-nitrophenolphosphate as a broad-spectrum substrate in a protein phosphatase assay, using calf intestinal alkaline phosphatase and MEG-2 tyrosine phosphatase as controls.
Series [2] can be described thus: Inositol polyphosphate 4-phosphatase (lipid phosphatase) assay. Format: biochemical. The note with it: P-Rex1 up to 1.45 μM.
The subject of the next series is P-Rex1. Briefly: Surface plasmon resonance (Biacore) binding of P-Rex1 to phospholipid vesicles. The note with it: 6 mol-% phosphoinositide; 100 nM P-Rex1; FIG. 5C. Also noted: species or system human. Here is the method: Assays were conducted as described (Ellson et al. 2001), using mixed phospholipid vesicles (PtdCho, PtdS, phosphatidylethanolamine (PtdE), 330 μM each final concentration) with or without added phosphoinositides (6 mol-% final concentration) to load the L1 vesicle capture chip (Biacore) prior to the injection of 100 nM purified recombinant Sf9-cell derived P-Rex1.

Another series concerns the target T1, recombinant human P-Rex1 (Homo sapiens, UniProt Q8TCU6, A1118T/K1340E).
T1 construct: made in house; host or cells: Sf9 cells (baculovirus, pAc0G1 vector)
Briefly: Rac-GEF assay for recombinant P-Rex1 ([35S]-GTPγS loading of EE-Rac1, liposomes). Format: biochemical. The method, then:
Liposomes (phosphatidylcholine (PtdCho), phosphatidylserine (PtdS), phosphatidylinositol (PtdIns), final assay concentration 200 μM each) were sonicated in lipid buffer (20 mM Hepes/NaOH pH 7.5 (4° C.), 100 mM NaCl, 1 mM EGTA) with or without PtdIns(3,4,5)P3 (final assay concentration 10 μM) and incubated for 10 min on ice with 2 μl of purified, GDP-loaded, recombinant, lipid-modified EE-Rac1 in 5 mM MgCl2, 50 mg/ml BSA, 5 mM DTT, 20 mM Hepes/NaOH pH 7.5 (4° C.), 100 mM NaCl, 1 mM EGTA (final assay concentration 100 nM EE-Rac1, 0.0024% cholate). Then 4 μl of Rac-GEF activity (cytosol, column fractions, or recombinant P-Rex1) was added, followed by 2 μl of GTPγS (in lipid buffer, final assay concentration 5 μM, including 1 μCi [^35S]-GTPγS). After 10 min at 30° C., the reaction was stopped and EE-Rac1 pulled down using anti-EE antibodies coupled to protein G-sepharose, and [^35S]-GTPγS-loading of Rac was detected by scintillation β-counting. Recombinant P-Rex1 was diluted in ‘buffer A’ (20 mM Hepes/NaOH pH 7.5 (4° C.), 1% betaine, 0.01% Na azide, 0.5 mM EGTA, 200 mM KCl, 10% ethylene glycol) to a final assay concentration of 50 nM. In assays with Gβγ, 2 μl of Gβγ in ‘buffer A’ were added to the liposome/Rac mix before the 10 min on ice, and P-Rex1 was added as 5×.

In another series the test system is EE-Rac1. Kind of series: Rac-GEF assay with neutrophil cytosol and membrane fractions. In kind it is biochemical. The note with it: PtdIns(3,4,5)P3 alone (30 μM); FIG. 1C. Here is the method: This assay was essentially as for ROS production, except pure, lipid-modified EE-Rac1 (30-50 nM final concentration) was added to the cytosol, and GTP, GTPγS, NADPH, FAD and luminol omitted. Three min after mixing membrane and cytosol fractions, [α^32P]-GTP (20 μCi per sample) was added. Four min later, the reaction was stopped and EE-Rac1 pulled down using anti-EE antibody coupled to protein G sepharose. The total dpm on EE-Rac1 were quantified by scintillation counting (blanks without EE-Rac1 were subtracted).

Series [3] concerns neutrophil cytosol and low-density membranes (ROS formation). Briefly: ROS formation assay with neutrophil cytosol and membrane fractions. Format: biochemical, pig. The note with it: added as liposomes, biological diastereoisomer; FIG. 1B. Here is the method: Neutrophil-enriched leukocytes were isolated from pigs' blood, sonicated in 0.25 M sucrose, 0.1 M KCl, 50 mM Hepes/NaOH pH 7.2 (4° C.), 1 mM DTT, 2 mM EGTA, 0.1 mM PMSF and 1× antiproteases (20 μg/ml of each antipain, aprotinin, pepstatin and leupetin) and centrifuged (100,000×g, 1 h, 4° C.) to yield cytosol and light membrane fractions (4.5 mg/ml protein, collected between 0.60 and 1.35 M sucrose and washed in sonication buffer). Light membranes (3 μl) were pre-mixed with Gβγ subunits, p101/p110γ-PI3K and/or N17-Rac (or boiled controls) in 6 μl containing 5 mM ATP, 8 mM MgCl2, 20 mM Hepes/NaOH pH 7.5 (4° C.), 2 mM EGTA, 10 mM β-glycerophosphate, 0.1 mM ortho-vanadate, 0.1 M KCl, 1 mM DTT, 0.01% (w/v) Na azide. After 25 min on ice, 20 μl was added containing 15 μl cytosol and 1 mM MgGTP, 20 μM FAD, 400 μM NADPH and 200 μM luminol. After 8 min at RT, single photon counts (SPC) per 0.1 min were quantitated in a scintillation counter at intervals of 3-5 min for up to 20 min (blanks without cytosol were subtracted). When lipids were added, they were preincubated with the membranes, and 10 μM GTPγS replaced MgGTP. Where wortmannin was added, it was preincubated with both cytosol and membrane fractions for 15 min on ice. Where EE-Rac1 was added, it was preloaded with different guanine nucleotides at a 5-fold excess over bound GDP.

pEC50: −log10 of the molar value.

Sequence of P-Rex1 (Q8TCU6 whole entry A1118T/K1340E): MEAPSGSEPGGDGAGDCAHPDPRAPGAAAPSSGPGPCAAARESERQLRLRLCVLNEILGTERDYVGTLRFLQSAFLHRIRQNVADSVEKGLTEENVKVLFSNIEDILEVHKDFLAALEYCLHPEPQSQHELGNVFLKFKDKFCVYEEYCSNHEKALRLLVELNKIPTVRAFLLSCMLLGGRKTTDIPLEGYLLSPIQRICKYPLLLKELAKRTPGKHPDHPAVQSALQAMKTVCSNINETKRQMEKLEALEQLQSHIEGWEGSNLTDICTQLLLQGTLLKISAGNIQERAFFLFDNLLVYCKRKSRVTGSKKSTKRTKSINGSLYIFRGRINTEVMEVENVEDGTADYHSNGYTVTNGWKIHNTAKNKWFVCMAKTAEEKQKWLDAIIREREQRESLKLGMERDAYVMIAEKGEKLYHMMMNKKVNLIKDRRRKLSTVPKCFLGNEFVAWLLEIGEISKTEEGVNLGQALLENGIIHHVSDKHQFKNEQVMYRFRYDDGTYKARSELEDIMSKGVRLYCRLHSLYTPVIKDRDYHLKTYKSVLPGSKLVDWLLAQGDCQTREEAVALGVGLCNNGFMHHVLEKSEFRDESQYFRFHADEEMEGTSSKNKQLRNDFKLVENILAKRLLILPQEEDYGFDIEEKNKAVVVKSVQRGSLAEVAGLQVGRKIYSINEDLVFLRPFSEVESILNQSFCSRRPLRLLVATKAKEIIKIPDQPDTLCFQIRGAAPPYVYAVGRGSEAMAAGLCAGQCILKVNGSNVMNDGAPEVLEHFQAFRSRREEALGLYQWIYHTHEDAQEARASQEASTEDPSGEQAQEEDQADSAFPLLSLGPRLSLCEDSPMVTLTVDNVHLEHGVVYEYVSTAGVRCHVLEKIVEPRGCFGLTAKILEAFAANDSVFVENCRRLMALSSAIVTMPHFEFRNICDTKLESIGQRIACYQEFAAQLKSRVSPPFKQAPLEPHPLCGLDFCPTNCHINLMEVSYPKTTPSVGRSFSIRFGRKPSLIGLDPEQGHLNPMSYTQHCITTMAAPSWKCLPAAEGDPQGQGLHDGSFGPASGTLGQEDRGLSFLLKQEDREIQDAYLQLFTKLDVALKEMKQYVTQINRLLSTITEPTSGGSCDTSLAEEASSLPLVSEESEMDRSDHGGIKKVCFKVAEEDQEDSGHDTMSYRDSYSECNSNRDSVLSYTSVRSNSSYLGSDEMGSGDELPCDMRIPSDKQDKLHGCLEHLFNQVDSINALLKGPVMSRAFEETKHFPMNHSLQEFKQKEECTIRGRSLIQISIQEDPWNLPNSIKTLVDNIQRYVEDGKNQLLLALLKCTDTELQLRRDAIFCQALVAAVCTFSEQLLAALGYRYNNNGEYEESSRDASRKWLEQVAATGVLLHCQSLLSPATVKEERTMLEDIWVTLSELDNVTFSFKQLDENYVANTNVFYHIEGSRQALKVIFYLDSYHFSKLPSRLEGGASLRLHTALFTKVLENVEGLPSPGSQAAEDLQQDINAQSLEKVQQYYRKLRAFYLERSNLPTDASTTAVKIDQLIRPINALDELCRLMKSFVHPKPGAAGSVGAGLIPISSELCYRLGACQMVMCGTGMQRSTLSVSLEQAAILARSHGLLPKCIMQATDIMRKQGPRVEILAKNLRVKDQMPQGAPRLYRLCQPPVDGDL
T1 sequence (Q8TCU6 whole entry A1118T/K1340E): as above

In the case of “P-Rex1: novel 185 kD PtdIns(3,4,5)P3- and Gβγ-regulated guanine-nucleotide exchange factor for Rac (SEQ ID NO:1)”, the “myc-positive cells with strongly exaggerated lamellipodia ('fried eggs', V12-Rac-like phenotype)” value in the series on PAE cells (serum-starved, unstimulated cells transiently expressing myc-P-Rex1) is “around 30%”. In addition, in series [1], the protein phosphatase activity result was “no lipid or protein phosphatase activity”. The lipid phosphatase activity result in series [2] was “no lipid or protein phosphatase activity”.

In the case of PtdIns(4,5)P2, the “P-Rex1 binding to phospholipid vesicles containing the phosphoinositide” value (shortened to “P-Rex1 binding”) with P-Rex1 was “only weakly”.

On to PtdIns(3,5)P2, for which the “P-Rex1 binding” value with P-Rex1 is reported as “only weakly”.

With PtdIns3P, the “P-Rex1 binding” value in the series with P-Rex1 was “only weakly”.

On to PtdIns(3,4)P2, for which the “activation of P-Rex1 Rac-GEF activity by phosphoinositide” value at recombinant human P-Rex1 (phosphoinositides compared at 10 μM, FIG. 5B) is reported as “weak activation”.

On to `C[C@H](CCC(=O)O)[C@H]1CC[C@H]2[C@@H]3[C@H](O)C[C@@H]4C[C@H](O)CC[C@]4(C)[C@H]3C[C@H](O)[C@]12C` [cholate], for which the “effect on P-Rex1 Rac-GEF activity in vitro” value at recombinant human P-Rex1 (FIG. 5D, 5E) is “strongly inhibits”.

In the case of “phosphatidylinositol(3,4,5)P3 [PtdIns(3,4,5)P3]”, the “P-Rex1 binding” value with P-Rex1 is on record as “substantially augmented”. At recombinant human P-Rex1 (liposomes with PtdIns(3,4,5)P3 dose response, EE-Rac1, FIG. 5A, read-out: 50% maximal effect on Rac-GEF activity of P-Rex1), the pEC50 was 6.52. Further, the “activation of Rac1” value with EE-Rac1 is recorded as “stimulated activation”. The “activation of ROS formation” value in series [3] was “potently activate”.

For the molecule PtdIns5P, the “P-Rex1 binding” value with P-Rex1 was “only weakly”.

Consider PtdIns4P, for which the “P-Rex1 binding” value in the series with P-Rex1 is “only weakly”.

On to PDGF, for which the “P-Rex1-positive cells exhibiting the V12-Rac-like phenotype” value in the series with PAE cells (PDGF-stimulation for 5 min) was found to be 80%.

Values taken from patent US20060084790A1, “P-Rex1, a ptdins (3,4,5) p3-g-beta-gamma-regulated guanine-nucleotide exchange factor for rac” (The Babraham Institute, priority 2002, published 2006).
